This note sets out measurements from US20240358672A1, “APPLICATION OF GENISTEIN AND ITS PHOSPHATE ESTER DERIVATIVE AND PHARMACEUTICAL COMPOSITION COMPRISING THE SAME” (National Taiwan University, priority 2023, published 2024).

Structures are written as SMILES.

Data set [1] concerns C57BL/6J mice. As to the kind of experiment: Neurobehavioral tetrad (Billy Martin tetrad) in mice. On the procedure:
FIG. 13 illustrate the effect of genistein on the neurobehavioral effects of Δ^9-THC according to Example 12. C57BL/6J mice were exposed to (1) vehicle control (intraperitoneal [i.p.], and oral [p.o.], n=8), (2) Δ^9-THC at 20 mg/kg i.p. and p.o. vehicle (n=9), (3) genistein at 50 mg/kg p.o. and i.p. vehicle (n=8), and (4) combination of Δ^9-THC at 20 mg/kg i.p. and genistein at 50 mg/kg p.o. (n=9). […] Hypothermia was assessed by measuring body temperature using a rectal probe before and 60 min after treatment. The catalepsy test measures the time a mouse remained immobile on the bar. Analgesia was measured by placing mice on a hot plate and recording the time for the mouse to withdraw or lick.
These are described as the Billy Martin tetrad.
Therefore, the neurological effects of Δ^9-THC and genistein co-administration were tested in C57BL/6J mice treated with vehicle, genistein, Δ^9-THC, or in combination. The tetrad effects were assessed using an activity chamber for mobility, a hot plate for analgesia, a rectal probe for hypothermia, and the bar test for […].

Data set [2] concerns mouse thoracic arteries. As to the kind of experiment: Wire myograph of isolated mouse thoracic aortas. It is filed as in vivo, C57BL/6J mice. On the procedure:
FIG. 7A: Isometric tension recordings of isolated mice thoracic aortas were performed using a wire myograph. Vascular concentration-dependent relaxation was induced by acetylcholine (ACh) in pre-constricted mouse thoracic arteries. […] FIG. 7C: Luminex analysis of inflammatory cytokines in plasma of C57BL/6J mice treated with vehicle control, Δ^9-THC, or Δ^9-THC plus genistein. […] FIG. 7E: Effect of Δ^9-THC and genistein on NF-κB phosphorylation in mouse thoracic artery. Total cell lysates were prepared, and the expressions of phosphor-NF-κB were analyzed by ELISA (upper left). Superoxide dismutase (SOD) activity of serum from mouse (bottom left). The effect of Δ^9-THC and genistein on NF-κB phosphorylation in mouse thoracic artery tissues (n=5). Total cell lysates were prepared, and the expressions of NF-κB, phosphorylated NF-κB, and β-actin were analyzed by western blot analysis (right panel). FIG. 7F: The levels reduced glutathione (GSH), Oxidized glutathione (GSSG), Total glutathione (T-GSH) and GSH/GSSG in the serum samples of mice were detected. Plasma isolated from C57BL/6J mice (n=5) treated with vehicle control, Δ^9-THC, genistein, or their combination every day for 30 days was analyzed by the glutathione colorimetric assay kit (BioVision, K261).

In data set [3] the test system is C57BL/6J mice. The data set can be described thus: Echocardiographic analysis of mice. On the procedure: FIG. 8A to 8C illustrate the effects of genistein and Δ^9-THC on cardiac contraction in vivo or in vitro experiments according to Example 9. […] After treatment exposure, the contractility, relaxation and peak force of EHT were measured using the Sony imaging platform. FIG. 8B: Same as the former, analysis of heart rate and contraction-relaxation (CR) interval (48 hours). […] Mice were anesthetized with 1%-2% isoflurane, and images were acquired in the parasternal long-axis (PLA) and parasternal short axis (PSA) on a Visualsonic Vevo 2100 platform. The ventricular (LV) dimensions were traced offline, and the ejection fraction (EF) was calculated using Simpson's biplane method of discs.
The inventor used engineered heart tissues (EHTs) composed of hiPSC-ECs and hiPSC-derived cardiomyocytes (hiPSC-CMs) to interrogate the effects of genistein and Δ^9-THC on contractility in vitro.

In data set [4] the test system is hiPSC-ECs. As to the kind of experiment: qPCR gene expression in hiPSC-ECs. It is filed as cell-based, human. The conditions noted are these: 48 hours. On the technique in general: In qPCR the cycle at which signal appears reflects the starting amount.
Data set [5] has as its system LDL receptor knockout mice (B6.129S7-Ldlr^tm1Her/J). As to the kind of experiment: Chronic atherosclerosis in Ldlr−/− mice on high-fat diet. Particulars: HFD 12 weeks. It is filed as in vivo, mouse. The text has this: FIG. 9A to 9E illustrate the effect of Δ^9-THC and genistein on the formation of chronic atherosclerosis according to Example 10. FIG. 9A: The body weights of Ldlr^−/− mice after exposure to (1) vehicle control (n=10), (2) Δ^9-THC (n=12), or (3) Δ^9-THC plus genistein (n=12). FIG. 9B: Lipid profiles of serum samples (left panel) and blood pressure (right panel) of Ldlr^−/− mice after exposure to (1) vehicle control (n=10 (left), n=3 (right)), (2) Δ^9-THC (n=12 (left), n=4 (right)), and (3) Δ^9-THC plus genistein (n=12 (left), n=4 (right)). The blood pressure was measured by tail-cuff. FIG. 9C: Oil red O staining of atherosclerotic plaques in cross-sections at the aortic root level (upper panel). Quantitation of atherosclerotic plaques: (1) vehicle control (n=10), (2) Δ^9-THC (n=10), and (3) Δ^9-THC plus genistein (n=11) (bottom panel). FIG. 9D: Gross images of oil red O stained Ldlr^−/− thoracic aorta are shown (left panel). Quantification of plaque size by en face analysis of thoracic aorta after exposure to (1) vehicle control (n=10), (2) Δ^9-THC (n=12), or (3) Δ^9-THC plus genistein (n=12). FIG. 9E: Immunostaining of CD68 in cross-sections at the aortic root level (upper panel). Quantitation of CD68-positive area from (1) vehicle control (n=10), (2) Δ^9-THC (n=9), and (3) Δ^9-THC plus genistein (n=10) (bottom panel).
In this part, In order to investigate the effect of Δ^9-THC and genistein in chronic atherosclerosis formation, LDL receptor knockout mice (B6.129S7-Ldlr^tm1Her/J) were fed a high-fat diet (HFD) for 12 weeks and treated with (1) vehicle control (n=10 to 12/group), (2) Δ^9-THC (n=10 to 12/group, administered Δ^9-THC 1 mg/kg), or (3) Δ^9-THC and genistein (n=10 to 12/group, administered Δ^9-THC 1 mg/kg plus genistein 50 mg/kg). […] After 12 weeks of HFD, the mice were euthanized, and the atherosclerotic lesion area was examined by cross-sections of the aortic root and an en face analysis of the thoracic aorta. […] Macrophage recruitment in the aortic root was analyzed using aortic plaque stained with an anti-CD68 antibody.

Setting [6] is: single agent: Δ^9-THC 1 mg/kg i.p. or genistein 50 mg/kg p.o.
The mark [7] stands for this setting: Δ^9-THC 1 mg/kg plus genistein 50 mg/kg.
[8] abbreviates: 10 μM genistein with 5 μM Δ^9-THC.

Consider `CCCCCc1cc(O)c2c(c1)OC(C)(C)[C@@H]1CCC(C)=C[C@@H]21` [Δ^9-THC, Δ^9-tetrahydrocannabinol], for which, in data set [1] (Δ^9-THC 20 mg/kg i.p.), the “analgesia (hot plate)” value is reported as “analgesia”, the “hypothermia (rectal probe)” value is listed as “hypothermia”, the “mobility (activity chamber)” value was “decreased mobility” and the “sedation (bar test)” value was “sedation”. In addition, the “endothelial function (ACh-induced relaxation)” value in data set [2] (Δ^9-THC 1 mg/kg) was “induced endothelial dysfunction”. Also, the “cardiac structure or function (EF, HR, LVEDV, LVEDM)” value (shortened to “cardiac structure or function”) in data set [3] (setting [6]) is recorded as “did not affect cardiac structure or function”. For the same molecule, in data set [4] (5 μM Δ^9-THC alone), the TLR4 expression result is “induced TLR4 expression”; the “expression of ROS-related genes NOX1 and NOS2” value is “upregulated”; the “mRNA expression of antioxidant-related genes (SOD1, SOD2, CAT, GPX1)” value is “decreased mRNA expression”. Further, in data set [4] (Δ^9-THC alone), the “expression of I kappa B (NFKBIA)” value was “inhibited”; the “expression of proinflammatory cytokines and chemokines” value is given as “increased”. For the same molecule, in data set [5] (Δ^9-THC 1 mg/kg), the “CD68-positive area in the aortic root” value is “significantly increased”; the “plaque size, cross-sections of the aortic root” value is “significantly increased plaque size”; the “serum lipid profiles or blood pressure” value is “Neither Δ^9-THC nor cotreatment with Δ^9-THC and genistein affected”.

Turning to `O=c1c(-c2ccc(O)cc2)coc2cc(O)cc(O)c12` [genistein], the tetrad effects result in data set [1] (genistein 50 mg/kg p.o. alone) is “did not affect tetrad effects”. Besides, in data set [1] (Δ^9-THC 20 mg/kg i.p. and genistein 50 mg/kg p.o.), the “Δ^9-THC neurobehavioral effects” value is listed as “could not attenuate”. The “Δ^9-THC-induced endothelial dysfunction” value in data set [2] (setting [7]) was “mitigated the effect”. In addition, the “cardiac structure or function” value in data set [3] (cotreatment Δ^9-THC 1 mg/kg i.p. and genistein 50 mg/kg p.o.) is given as “did not affect cardiac structure or function”. The “cardiac structure or function” value in data set [3] (setting [6]) was “did not affect cardiac structure or function”. Moreover, in data set [4] (setting [8]), the “NOS2 and NOX1 expression” value is on record as “salutatory effect”; the “Δ^9-THC-induced TLR4 expression” value is recorded as “disrupted its expression”. In data set [5] (setting [7]), the “CD68-positive area in the aortic root” value is reported as “rescued”; the “plaque formation, en face analysis of the thoracic aorta (oil red O)” value is reported as “improvement of plaque formation”; the “plaque size, cross-sections of the aortic root” value is recorded as “ameliorated plaque size”; the “serum lipid profiles or blood pressure” value was “Neither Δ^9-THC nor cotreatment with Δ^9-THC and genistein affected”.
